Measured values reported in patent US12077503B2, “Substituted cyclic amides and their use as herbicides” (FMC CORPORATION, priority 2015, dated 2024).

Columns and labels:
Assay type in all cases: in vivo
[1] = system: Kochia (Kochia scoparia); assay: Test A preemergence; details: Bassia scoparia, pre-emergence, 240 h, preemergence, 0 to 100 scale where 0 is no effect and 100 is complete control, read-out: Kochia plant response rating; for pest or weed control at 125 g/ha: 125 g ai/ha, visual injury rating, approximately 10 d; for pest or weed control at 500 g/ha: 500 g ai/ha
Outline: (§1)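 Visual injury, scored on a 0–100 scale relative to untreated controls, was recorded about 10 d after application. Treatments were a preemergence soil spray over planted seeds or a postemergence spray on plants at the one- to two-leaf stage, 2 to 10 cm tall, all in loam soil–sand blend in the greenhouse.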

[2] = system: barnyardgrass (Echinochloa crus-galli); assay: Test A preemergence; details: Echinochloa crus-galli, pre-emergence, 240 h, preemergence, 0 to 100 scale where 0 is no effect and 100 is complete control, read-out: Barnyardgrass plant response rating; for pest or weed control at 125 g/ha: 125 g ai/ha, visual injury rating, approximately 10 d; for pest or weed control at 500 g/ha: 500 g ai/ha
Outline: as §1

[3] = system: giant foxtail (Setaria faberii); assay: Test A preemergence; details: Setaria faberi, pre-emergence, 240 h, preemergence, 0 to 100 scale where 0 is no effect and 100 is complete control, read-out: Foxtail, Giant plant response rating; for pest or weed control at 125 g/ha: 125 g ai/ha, visual injury rating, approximately 10 d; for pest or weed control at 500 g/ha: 500 g ai/ha
Outline: as §1

[4] = system: pigweed (Amaranthus retroflexus); assay: Test A preemergence; details: Amaranthus retroflexus, pre-emergence, 240 h, preemergence, 0 to 100 scale where 0 is no effect and 100 is complete control, read-out: Pigweed plant response rating; for pest or weed control at 125 g/ha: 125 g ai/ha, visual injury rating, approximately 10 d; for pest or weed control at 500 g/ha: 500 g ai/ha
[5] = system: ragweed (common ragweed, Ambrosia elatior); assay: Test A preemergence; details: Ambrosia artemisiifolia, pre-emergence, 240 h, preemergence, 0 to 100 scale where 0 is no effect and 100 is complete control, read-out: Ragweed plant response rating; for pest or weed control at 125 g/ha: 125 g ai/ha, visual injury rating, approximately 10 d; for pest or weed control at 500 g/ha: 500 g ai/ha
Outline: as §1

[6] = system: ryegrass, Italian (Italian ryegrass, Lolium multiflorum); assay: Test A preemergence; details: Lolium multiflorum, pre-emergence, 240 h, preemergence, 0 to 100 scale where 0 is no effect and 100 is complete control, read-out: Ryegrass, Italian plant response rating; for pest or weed control at 125 g/ha: 125 g ai/ha, visual injury rating, approximately 10 d; for pest or weed control at 500 g/ha: 500 g ai/ha
Outline: as §1

[7] = system: Galium (catchweed bedstraw, Galium aparine); assay: Test A postemergence; details: Galium, post-emergence, 240 h; for pest or weed control at 125 g/ha: 125 g ai/ha, postemergence, visual injury vs untreated controls after approx. 10 d, 0 = no effect, 100 = complete control, read-out: Galium plant response rating (0 to 100 scale); for pest or weed control at 500 g/ha: Postemergence, 500 g ai/ha, visual injury, 0 to 100 scale (0 no effect, 100 complete control), approx. 10 d, read-out: Plant response rating, Galium
Outline: as §1

[8] = system: Kochia (Kochia scoparia); assay: Test A postemergence; details: Bassia scoparia, post-emergence, 240 h; for pest or weed control at 125 g/ha: 125 g ai/ha, postemergence, visual injury vs untreated controls after approx. 10 d, 0 = no effect, 100 = complete control, read-out: Kochia plant response rating (0 to 100 scale); for pest or weed control at 500 g/ha: Postemergence, 500 g ai/ha, visual injury, 0 to 100 scale (0 no effect, 100 complete control), approx. 10 d, read-out: Plant response rating, Kochia
Outline: as §1

[9] = system: barnyardgrass (Echinochloa crus-galli); assay: Test A postemergence; details: Echinochloa crus-galli, post-emergence, 240 h; for pest or weed control at 125 g/ha: 125 g ai/ha, postemergence, visual injury vs untreated controls after approx. 10 d, 0 = no effect, 100 = complete control, read-out: Barnyardgrass plant response rating (0 to 100 scale); for pest or weed control at 500 g/ha: Postemergence, 500 g ai/ha, visual injury, 0 to 100 scale (0 no effect, 100 complete control), approx. 10 d, read-out: Plant response rating, Barnyardgrass
Outline: as §1

[10] = system: blackgrass (Alopecurus myosuroides); assay: Test A postemergence; details: Alopecurus myosuroides, post-emergence, 240 h; for pest or weed control at 125 g/ha: 125 g ai/ha, postemergence, visual injury vs untreated controls after approx. 10 d, 0 = no effect, 100 = complete control, read-out: Blackgrass plant response rating (0 to 100 scale); for pest or weed control at 500 g/ha: Postemergence, 500 g ai/ha, visual injury, 0 to 100 scale (0 no effect, 100 complete control), approx. 10 d, read-out: Plant response rating, Blackgrass
Outline: as §1

[11] = system: corn (Zea mays); assay: Test A postemergence; details: Zea mays, post-emergence, 240 h; for plant injury at 125 g/ha: 125 g ai/ha, postemergence, visual injury vs untreated controls after approx. 10 d, 0 = no effect, 100 = complete control, read-out: Corn plant response rating (0 to 100 scale); for Corn plant response rating (crop injury, 0 = no effect, 100 = complete kill) at 500 g/ha: Postemergence, 500 g ai/ha, visual injury, 0 to 100 scale (0 no effect, 100 complete control), approx. 10 d
Outline: as §1

[12] = system: giant foxtail (Setaria faberii); assay: Test A postemergence; details: Setaria faberi, post-emergence, 240 h; for pest or weed control at 125 g/ha: 125 g ai/ha, postemergence, visual injury vs untreated controls after approx. 10 d, 0 = no effect, 100 = complete control, read-out: Foxtail, Giant plant response rating (0 to 100 scale); for pest or weed control at 500 g/ha: Postemergence, 500 g ai/ha, visual injury, 0 to 100 scale (0 no effect, 100 complete control), approx. 10 d, read-out: Plant response rating, Foxtail, Giant
Outline: as §1

[13] = system: pigweed (Amaranthus retroflexus); assay: Test A postemergence; details: Amaranthus retroflexus, post-emergence, 240 h; for pest or weed control at 125 g/ha: 125 g ai/ha, postemergence, visual injury vs untreated controls after approx. 10 d, 0 = no effect, 100 = complete control, read-out: Pigweed plant response rating (0 to 100 scale); for pest or weed control at 500 g/ha: Postemergence, 500 g ai/ha, visual injury, 0 to 100 scale (0 no effect, 100 complete control), approx. 10 d, read-out: Plant response rating, Pigweed
Outline: as §1

[14] = system: ragweed (common ragweed, Ambrosia elatior); assay: Test A postemergence; details: Ambrosia artemisiifolia, post-emergence, 240 h; for pest or weed control at 125 g/ha: 125 g ai/ha, postemergence, visual injury vs untreated controls after approx. 10 d, 0 = no effect, 100 = complete control, read-out: Ragweed plant response rating (0 to 100 scale); for pest or weed control at 500 g/ha: Postemergence, 500 g ai/ha, visual injury, 0 to 100 scale (0 no effect, 100 complete control), approx. 10 d, read-out: Plant response rating, Ragweed
Outline: as §1

[15] = system: ryegrass, Italian (Italian ryegrass, Lolium multiflorum); assay: Test A postemergence; details: Lolium multiflorum, post-emergence, 240 h; for pest or weed control at 125 g/ha: 125 g ai/ha, postemergence, visual injury vs untreated controls after approx. 10 d, 0 = no effect, 100 = complete control, read-out: Ryegrass, Italian plant response rating (0 to 100 scale); for pest or weed control at 500 g/ha: Postemergence, 500 g ai/ha, visual injury, 0 to 100 scale (0 no effect, 100 complete control), approx. 10 d, read-out: Plant response rating, Ryegrass, Italian
Outline: as §1

[16] = system: wheat (Triticum aestivum); assay: Test A postemergence; details: Triticum aestivum, post-emergence, 240 h; for plant injury at 500 g/ha: Postemergence, 500 g ai/ha, visual injury, 0 to 100 scale (0 no effect, 100 complete control), approx. 10 d, read-out: Plant response rating, Wheat
Outline: as §1

Structure (SMILES) | pest or weed control at 125 g/ha [1] [%] | pest or weed control at 500 g/ha [1] [%] | pest or weed control at 125 g/ha [2] [%] | pest or weed control at 500 g/ha [2] [%] | pest or weed control at 125 g/ha [3] [%] | pest or weed control at 500 g/ha [3] [%] | pest or weed control at 125 g/ha [4] [%] | pest or weed control at 500 g/ha [4] [%] | pest or weed control at 125 g/ha [5] [%] | pest or weed control at 500 g/ha [5] [%] | pest or weed control at 125 g/ha [6] [%] | pest or weed control at 500 g/ha [6] [%] | pest or weed control at 125 g/ha [7] [%] | pest or weed control at 500 g/ha [7] [%] | pest or weed control at 125 g/ha [8] [%] | pest or weed control at 500 g/ha [8] [%] | pest or weed control at 125 g/ha [9] [%] | pest or weed control at 500 g/ha [9] [%] | pest or weed control at 125 g/ha [10] [%] | pest or weed control at 500 g/ha [10] [%] | also measured
CN1C[C@H](c2cccc(C(F)(F)F)c2)[C@@H](C(=O)Nc2ccc(F)cc2C(F)(F)F)C1=O [Compound 1250] | 0 | 40 | 100 | 100 | 100 | 100 | 30 | 30 | 0 | 0 | 50 | 50 | 40 | 60 | 0 | 20 | 70 | 90 | 20 | 60 | plant injury at 125 g/ha [11]: 40%; Corn plant response rating (crop injury, 0 = no effect, 100 = complete kill) at 500 g/ha [11]: 70%; pest or weed control at 125 g/ha [12]: 80%; pest or weed control at 500 g/ha [12]: 80%; pest or weed control at 125 g/ha [13]: 0%; pest or weed control at 500 g/ha [13]: 30%; pest or weed control at 125 g/ha [14]: 0%; pest or weed control at 500 g/ha [14]: 0%; pest or weed control at 125 g/ha [15]: 20%; pest or weed control at 500 g/ha [15]: 50%; plant injury at 125 g/ha ([16]; 125 g ai/ha, postemergence, visual injury vs untreated controls after approx. 10 d, 0 = no effect, 100 = complete control, read-out: Wheat plant response rating (0 to 100 scale)): 40%; plant injury at 500 g/ha [16]: 70%
CN1C[C@H](c2ccc(C(F)(F)F)cc2)[C@@H](C(=O)Nc2ccccc2)C1=O [Compound 1253] | 80 | 80 | 90 | 100 | 100 | 100 | 50 | 80 | 40 | 60 | 20 | 60 | 50 | 60 | 60 | 70 | 90 | 100 | 30 | 50 | plant injury at 125 g/ha [11]: 0%; Corn plant response rating (crop injury, 0 = no effect, 100 = complete kill) at 500 g/ha [11]: 70%; pest or weed control at 125 g/ha [12]: 80%; pest or weed control at 500 g/ha [12]: 90%; pest or weed control at 125 g/ha [13]: 0%; pest or weed control at 500 g/ha [13]: 30%; pest or weed control at 125 g/ha [14]: 0%; pest or weed control at 500 g/ha [14]: 0%; pest or weed control at 125 g/ha [15]: 40%; pest or weed control at 500 g/ha [15]: 60%; plant injury at 500 g/ha [16]: 50%
